From US11390616B2 (BRISTOL-MYERS SQUIBB COMPANY, priority 2015, dated 2022)
pEC50: −log10 of the molar value.

Target: T1, human APJ receptor (Homo sapiens, UniProt P35414)
T1 construct: expressed in transfected cells; host or cells: HEK293
T1 sequence (P35414 1-380): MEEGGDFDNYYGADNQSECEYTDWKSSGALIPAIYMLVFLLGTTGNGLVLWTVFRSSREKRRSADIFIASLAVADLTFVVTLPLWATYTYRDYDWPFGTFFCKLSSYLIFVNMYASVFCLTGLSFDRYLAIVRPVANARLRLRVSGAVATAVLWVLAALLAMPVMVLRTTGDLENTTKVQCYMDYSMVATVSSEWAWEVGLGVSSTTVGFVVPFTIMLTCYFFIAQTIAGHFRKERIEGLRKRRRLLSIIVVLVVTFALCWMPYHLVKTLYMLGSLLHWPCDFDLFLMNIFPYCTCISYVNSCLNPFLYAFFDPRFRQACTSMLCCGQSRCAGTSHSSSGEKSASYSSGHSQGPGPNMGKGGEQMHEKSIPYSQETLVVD
Assay: Intracellular cAMP accumulation assay (APJ hcAMP, HTRF)
Type: cell-based
Details: HEK293 cells stably expressing human APJ receptor; inhibition of forskolin-mediated cAMP production; read-out: APJ cAMP Potency range
Method in brief: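 HEK293 cells stably expressing the receptor (5,000/well) treated with compound plus […] and 2 μM forskolin for 30 min at room temperature; cAMP by HTRF against a cAMP standard curve. EC50 from variable-slope sigmoidal fit; Ymax as % of (Pyr1)apelin-13 inhibition.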

Row | pEC50 | Structure (SMILES)
1 | 8.00 to 11.00 | CC[C@@H](c1cc(F)cc(F)c1)n1c(COC(C)C)nc(=O)c(Cc2ccc(-c3ccc(F)nc3C)cc2)c1O [Example 112, 1-[(1S)-1-(3,5-difluorophenyl)propyl]-5-{[4-(6-fluoro-2-methylpyridin-3-yl)phenyl]methyl}-6-hydroxy-2-[(propan-2-yloxy)methyl]-1,4-dihydropyrimidin-4-one]
2 | 8.00 to 11.00 | CC[C@@H](c1cc(F)cc(F)c1)n1c(CCC2CC2)nc(=O)c(Cc2ccc(-c3ccnc(F)c3C)cc2)c1O [Example 113, 2-(2-cyclopropylethyl)-1-[(1S)-1-(3,5-difluorophenyl)propyl]-5-{[4-(2-fluoro-3-methylpyridin-4-yl)phenyl]methyl}-6-hydroxy-1,4-dihydropyrimidin-4-one]
3 | 8.00 to 11.00 | CC[C@@H](c1cc(F)cc(F)c1)n1c(COC(C)C)nc(=O)c(Cc2ccc(-c3ccncc3C)cc2)c1O [Example 114, 1-[(1S)-1-(3,5-difluorophenyl)propyl]-6-hydroxy-5-{[4-(3-methylpyridin-4-yl)phenyl]methyl}-2-[(propan-2-yloxy)methyl]-1,4-dihydropyrimidin-4-one]
4 | 8.00 to 11.00 | Cc1ncccc1-c1ccc(Cc2c(O)n([C@H](c3cc(F)cc(F)c3)C(C)C)c(COC(C)C)nc2=O)cc1 [Example 115, 1-[(1S)-1-(3,5-difluorophenyl)-2-methylpropyl]-6-hydroxy-5-{[4-(2-methylpyridin-3-yl)phenyl]methyl}-2-[(propan-2-yloxy)methyl]-1,4-dihydropyrimidin-4-one]
5 | 8.00 to 11.00 | CC(C)OCc1nc(=O)c(Cc2ccc(-c3ccc(F)cc3C(N)=O)cc2)c(O)n1[C@H](c1cc(F)cc(F)c1)C(C)C [Example 116, 4′-({1-[(1S)-1-(3,5-difluorophenyl)-2-methylpropyl]-6-hydroxy-4-oxo-2-[(propan-2-yloxy)methyl]-1,4-dihydropyrimidin-5-yl}methyl)-4-fluoro-[1,1′-biphenyl]-2-carboxamide]
6 | 8.00 to 11.00 | CC(C)[C@@H](c1cc(F)cc(F)c1)n1c(CCC2CC2)nc(=O)c(Cc2ccc(-c3ccc(F)cc3C(N)=O)cc2)c1O [Example 117, 4′-{[2-(2-cyclopropylethyl)-1-[(1S)-1-(3,5-difluorophenyl)-2-methylpropyl]-6-hydroxy-4-oxo-1,4-dihydropyrimidin-5-yl]methyl}-4-fluoro-[1,1′-biphenyl]-2-carboxamide]
7 | 8.00 to 11.00 | CC[C@@H](c1ccccc1)n1c(-c2nc(C)cs2)nc(=O)c(Cc2ccc(-c3ccnc(F)c3C)c(F)c2)c1O [Example 118, 5-{[3-fluoro-4-(2-fluoro-3-methylpyridin-4-yl)phenyl]methyl}-6-hydroxy-2-(4-methyl-1,3-thiazol-2-yl)-1-[(1S)-1-phenylpropyl]-1,4-dihydropyrimidin-4-one]
8 | 8.00 to 11.00 | CC[C@@H](c1ccccc1)n1c(-c2nc(C)cs2)nc(=O)c(Cc2ccc(-c3cccn(C)c3=O)c(F)c2)c1O [Example 119, 5-{[3-fluoro-4-(1-methyl-2-oxo-1,2-dihydropyridin-3-yl)phenyl]methyl}-6-hydroxy-2-(4-methyl-1,3-thiazol-2-yl)-1-[(1S)-1-phenylpropyl]-1,4-dihydropyrimidin-4-one]
9 | 8.00 to 11.00 | CC[C@@H](c1ccccc1)n1c(-c2nc(C)cs2)nc(=O)c(Cc2ccc(-c3ccc(F)cc3C(N)=O)c(F)c2)c1O [Example 120, 2′,4-difluoro-4′-{[6-hydroxy-2-(4-methyl-1,3-thiazol-2-yl)-4-oxo-1-[(1S)-1-phenylpropyl]-1,4-dihydropyrimidin-5-yl]methyl}-[1,1′-biphenyl]-2-carboxamide]
10 | 7.00 to 8.00 | Cc1ncccc1-c1ccc(Cc2c(O)n([C@H](c3cc(F)cc(C#N)c3)C(C)C)c(COC(C)C)nc2=O)cc1 [Example 121, 3-fluoro-5-[(1S)-1-(6-hydroxy-5-{[4-(2-methylpyridin-3-yl)phenyl]methyl}-4-oxo-2-[(propan-2-yloxy)methyl]-1,4-dihydropyrimidin-1-yl)-2-methylpropyl]benzonitrile]
11 | 8.00 to 11.00 | CCOCc1nc(=O)c(Cc2ccc(-c3ccncc3C)cc2)c(O)n1[C@@H](COC)c1cc(F)cc(F)c1 [Example 122, 1-[(1R)-1-(3,5-difluorophenyl)-2-methoxyethyl]-2-(ethoxymethyl)-6-hydroxy-5-{[4-(3-methylpyridin-4-yl)phenyl]methyl}-1,4-dihydropyrimidin-4-one]
12 | 8.00 to 11.00 | CCOCc1nc(=O)c(Cc2ccc(-c3cccnc3C)cc2)c(O)n1[C@@H](COC)c1cc(F)cc(F)c1 [Example 123, 1-[(1R)-1-(3,5-difluorophenyl)-2-methoxyethyl]-2-(ethoxymethyl)-6-hydroxy-5-{[4-(2-methylpyridin-3-yl)phenyl]methyl}-1,4-dihydropyrimidin-4-one]
13 | 8.00 to 11.00 | CCOCc1nc(=O)c(Cc2ccc(-c3ccc(F)nc3C)cc2)c(O)n1[C@@H](COC)c1cc(F)cc(F)c1 [Example 124, 1-[(1R)-1-(3,5-difluorophenyl)-2-methoxyethyl]-2-(ethoxymethyl)-5-{[4-(6-fluoro-2-methylpyridin-3-yl)phenyl]methyl}-6-hydroxy-1,4-dihydropyrimidin-4-one]
14 | 7.00 to 8.00 | CCOCc1nc(=O)c(Cc2ccc(-c3ccc(F)nc3)cc2)c(O)n1[C@@H](COC)c1cc(F)cc(F)c1 [Example 125, 1-[(1R)-1-(3,5-difluorophenyl)-2-methoxyethyl]-2-(ethoxymethyl)-5-{[4-(6-fluoropyridin-3-yl)phenyl]methyl}-6-hydroxy-1,4-dihydropyrimidin-4-one]
15 | 8.00 to 11.00 | CCOCc1nc(=O)c(Cc2ccc(-c3ccnc(F)c3C)cc2)c(O)n1[C@@H](COC)c1cc(F)cc(F)c1 [Example 126, 1-[(1R)-1-(3,5-difluorophenyl)-2-methoxyethyl]-2-(ethoxymethyl)-5-{[4-(2-fluoro-3-methylpyridin-4-yl)phenyl]methyl}-6-hydroxy-1,4-dihydropyrimidin-4-one]
16 | 7.00 to 8.00 | CCCCc1nc(=O)c(Cc2cccc(-c3ccncc3C)c2)c(O)n1[C@@H](CC)c1cc(F)cc(F)c1 [Example 127, 2-butyl-1-[(1S)-1-(3,5-difluorophenyl)propyl]-6-hydroxy-5-{[3-(3-methylpyridin-4-yl)phenyl]methyl}-1,4-dihydropyrimidin-4-one]
17 | 7.00 to 8.00 | CCCCc1nc(=O)c(Cc2cccc(-c3ccnc(F)c3C)c2)c(O)n1[C@@H](CC)c1cc(F)cc(F)c1 [Example 128, 2-butyl-1-[(1S)-1-(3,5-difluorophenyl)propyl]-5-{[3-(2-fluoro-3-methylpyridin-4-yl)phenyl]methyl}-6-hydroxy-1,4-dihydropyrimidin-4-one]
18 | 7.00 to 8.00 | CCCCc1nc(=O)c(Cc2cccc(-c3cccnc3C)c2)c(O)n1[C@@H](CC)c1cc(F)cc(F)c1 [Example 129, 2-butyl-1-[(1S)-1-(3,5-difluorophenyl)propyl]-6-hydroxy-5-{[3-(2-methylpyridin-3-yl)phenyl]methyl}-1,4-dihydropyrimidin-4-one]
19 | 8.00 to 11.00 | CCCCc1nc(=O)c(Cc2cccc(-c3ccc(F)nc3C)c2)c(O)n1[C@@H](CC)c1cc(F)cc(F)c1 [Example 130, 2-butyl-1-[(1S)-1-(3,5-difluorophenyl)propyl]-5-{[3-(6-fluoro-2-methylpyridin-3-yl)phenyl]methyl}-6-hydroxy-1,4-dihydropyrimidin-4-one]
20 | 7.00 to 8.00 | CCCCc1nc(=O)c(Cc2cccc(-c3ccc(F)cc3C(N)=O)c2)c(O)n1[C@@H](CC)c1cc(F)cc(F)c1 [Example 131, 3′-({2-butyl-1-[(1S)-1-(3,5-difluorophenyl)propyl]-6-hydroxy-4-oxo-1,4-dihydropyrimidin-5-yl}methyl)-4-fluoro-[1,1′-biphenyl]-2-carboxamide]
21 | 8.00 to 11.00 | CC[C@@H](c1cc(F)cc(F)c1)n1c(-c2ccn(CC)n2)nc(=O)c(Cc2ccc(-c3ccnc(F)c3C)cc2)c1O [Example 132, 1-[(1S)-1-(3,5-difluorophenyl)propyl]-2-(1-ethyl-1H-pyrazol-3-yl)-5-{[4-(2-fluoro-3-methylpyridin-4-yl)phenyl]methyl}-6-hydroxy-1,4-dihydropyrimidin-4-one]
22 | 8.00 to 11.00 | CC[C@@H](c1cc(F)cc(F)c1)n1c(-c2ccn(CC)n2)nc(=O)c(Cc2ccc(-c3cccnc3C)cc2)c1O [Example 133, 1-[(1S)-1-(3,5-difluorophenyl)propyl]-2-(1-ethyl-1H-pyrazol-3-yl)-6-hydroxy-5-{[4-(2-methylpyridin-3-yl)phenyl]methyl}-1,4-dihydropyrimidin-4-one]
23 | 8.00 to 11.00 | CC[C@@H](c1cc(F)cc(F)c1)n1c(-c2ccn(CC)n2)nc(=O)c(Cc2ccc(-c3ccc(F)nc3C)cc2)c1O [Example 134, 1-[(1S)-1-(3,5-difluorophenyl)propyl]-2-(1-ethyl-1H-pyrazol-3-yl)-5-{[4-(6-fluoro-2-methylpyridin-3-yl)phenyl]methyl}-6-hydroxy-1,4-dihydropyrimidin-4-one]
24 | 8.00 to 11.00 | CC[C@@H](c1cc(F)cc(F)c1)n1c(-c2ccn(CC)n2)nc(=O)c(Cc2ccc(-c3ccc(F)nc3)cc2)c1O [Example 135, 1-[(1S)-1-(3,5-difluorophenyl)propyl]-2-(1-ethyl-1H-pyrazol-3-yl)-5-{[4-(6-fluoropyridin-3-yl)phenyl]methyl}-6-hydroxy-1,4-dihydropyrimidin-4-one]
